# From paper PMC5142287, “Weight control interventions improve therapeutic efficacy of dacarbazine in melanoma by reversing obesity-induced drug resistance” (Cancer & Metabolism, 2016)
# How the values were obtained:
# [1] = test system: B16F10 melanoma; assay: B16F10 melanoma isograft in ND C57BL/6J mice: tumor growth and survival
# Experimental: Melanoma cells were injected and orlistat treatment was continued. Following tumor formation, all groups of mice were treated with vehicle (acidified water) or DTIC, and tumor volume was followed up in these mice throughout the study as mentioned above. […] At the end of the experiment, mice were sacrificed, tumors were excised, and the samples were immediately preserved at −80 °C until further use. Five mice from each group were followed up for survival studies as mentioned above.
# [2] = Obesity-associated factors in B16F10-isografted HFD C57BL/6J mice (body weight, blood glucose, serum lipids, ELISA); assay type: in vivo; details: end of experiment, mean ± SD
# Source text: C57BL/6J mice were procured from Experimental Animal Facility (EAF) at National Centre for Cell Science (NCCS), Pune, India. High fat diet (24% fat) was purchased from Provimi Animal Nutrition Pvt. Ltd., Bangalore, India, and normal diet (5% fat) was obtained from Amrut Laboratory, Pune, India. The compositions of diets are provided in supplementary data (Additional file 1: Table S1). Diet-induced obesity was developed in the mice by feeding them with high fat diet as described previously. Male C57BL/6J mice (6–8 weeks old) were divided into normal diet (ND) and high fat diet (HFD) group. ND group was fed with normal diet while HFD group was fed with high fat diet supplemented with ground nut and dried coconut for 6 months. Body weight and serum chemistry profile were measured monthly to verify obesity-associated changes. Water and food were provided ad libitum to all the mice. All animal experiments were carried out as per the requirement and guidelines of the Committee for the Purpose of Control and Supervision of Experiments on Animals (CPCSEA), Government of India, and after obtaining permission of the Institutional Animal Ethics Committee (IAEC).
# (§1) Blood glucose levels and serum lipids were estimated as described previously. Insulin, leptin, and adiponectin levels in the serum were estimated by mouse-specific respective ELISA kits as described. Resistin, IL-6, and TNF-α levels in the serum were detected by indirect ELISA as described previously.
# (§2) To study the impact of diet-induced obesity on the outcome of DTIC therapy in melanoma, we treated B16F10 melanoma isografted obese mice with DTIC purchased from Sigma, USA (80 mg/kg intraperitoneally for five consecutive days as described previously). In addition, to look into the impact of weight loss interventions on the outcome of DTIC therapy in obese mice, mice were administered with orlistat (an antiobesity drug known to inhibit gastrointestinal lipases) and/or shifted from high fat to normal diet followed by DTIC treatment. The detailed experimental plan is illustrated in Fig. 1a. Briefly, obese mice were administered orally with orlistat (10 mg/kg on every alternate day) purchased from Enzo Life Sciences, NY, USA, and/or shifted from high fat diet to normal diet. HFD C57BL/6J mice treated with vehicle or orlistat were termed as HFD-HFD Ctrl and HFD-HFD Orli (N = 11 per each group), respectively, whereas HFD C57BL/6J mice shifted to normal diet and treated with vehicle or orlistat were grouped as HFD-ND Ctrl and HFD-ND Orli (N = 11 per each group), respectively. After 15 days, these mice were injected subcutaneously (s.c.) with B16F10 cells (2 × 10^5) in 100 μl of PBS and monitored daily for the presence of palpable tumors and dimensions were recorded on alternate days. […] Tumor volume was calculated using the formula 0.52 × length × width^2 and was followed up throughout the study.
# [3] = test system: B16F10 melanoma; assay: B16F10 melanoma isograft in HFD (obese) C57BL/6J mice: tumor growth and survival; assay type: in vivo; details: HFD mice, vs untreated counterparts
# Experimental: as §2
# [4] = Obesity-associated factors in B16F10-isografted ND C57BL/6J mice; assay type: in vivo; details: end of experiment
# Source text: as §1
# [5] = test system: 3T3-L1 adipocytes; design: method as in PMID 10840932; details: cited from earlier work
smiles,measurement,setting,value
CCCCCCCCCCC[C@@H](C[C@@H]1OC(=O)[C@H]1CCCCCC)OC(=O)[C@H](CC(C)C)NC=O [orlistat],Survival of tumor-bearing mice,[1],did not influence
same,Tumor progression (tumor volume and weight),"[1]; DTIC 80 mg/kg i.p. 5 days, orlistat 10 mg/kg oral alternate days",unaltered
same,Body weight,"[2]; HFD-HFD (continued on HFD), orlistat 10 mg/kg oral alternate days, DTIC 80 mg/kg i.p. 5 days",26.16 ± 0.71 (p < 0.0001) g
same,Blood glucose,[2]; HFD-HFD,146.3 ± 5.99 (p < 0.0001) mg/dl
same,Serum IL-6,[2]; HFD-HFD,35.45 ± 2.88 (p < 0.0001) pg/ml
same,Serum LDLc,[2]; HFD-HFD,66.69 ± 3.42 (p < 0.0001) mg/dl
same,Serum TG,[2]; HFD-HFD,66.03 ± 3.39 (p < 0.0001) mg/dl
same,Serum TNF-α,[2]; HFD-HFD,13.78 ± 1.07 (p < 0.0001) pg/ml
same,Serum adiponectin,[2]; HFD-HFD,8204 ± 593 (p < 0.0001) ng/ml
same,Serum cholesterol,[2]; HFD-HFD,95.75 ± 4.91 (p < 0.0001) mg/dl
same,Serum free fatty acids,[2]; HFD-HFD,1.74 ± 0.09 (p < 0.0001) mM/l
same,Serum insulin,[2]; HFD-HFD,0.269 ± 0.01 (p < 0.0001) μg/l
same,Serum leptin,[2]; HFD-HFD,33.74 ± 2.47 (p < 0.0001) ng/ml
same,Serum resistin,[2]; HFD-HFD,1.66 ± 0.08 (p < 0.0001) ng/ml
same,Body weight,[2]; HFD-ND (shifted from HFD to normal diet),23.1 ± 1.02 (p < 0.0001) g
same,Blood glucose,[2]; HFD-ND,128.83 ± 6.24 (p < 0.0001) mg/dl
same,Serum IL-6,[2]; HFD-ND,29.25 ± 2.12 (p < 0.0001) pg/ml
same,Serum LDLc,[2]; HFD-ND,63.31 ± 3.13 (p < 0.0001) mg/dl
same,Serum TG,[2]; HFD-ND,60.53 ± 3.15 (p < 0.0001) mg/dl
same,Serum TNF-α,[2]; HFD-ND,11.48 ± 1.12 (p < 0.0001) pg/ml
same,Serum adiponectin,[2]; HFD-ND,9108 ± 550 (p < 0.0001) ng/ml
same,Serum cholesterol,[2]; HFD-ND,88.64 ± 5.17 (p < 0.0001) mg/dl
same,Serum free fatty acids,[2]; HFD-ND,1.66 ± 0.08 (p < 0.0001) mM/l
same,Serum insulin,[2]; HFD-ND,0.2570 ± 0.01 (p < 0.0001) μg/l
same,Serum leptin,[2]; HFD-ND,26.54 ± 1.60 (p < 0.0001) ng/ml
same,Serum resistin,[2]; HFD-ND,1.19 ± 0.06 (p < 0.0001) ng/ml
same,Tumor growth,[3],restricted tumor growth
same,Blood glucose,[4]; mean,161.83 mg/dL
same,Serum IL-6,[4]; mean,19.99 pg/mL
same,Serum LDLc,[4]; mean,51.26 mg/dL
same,Serum TG,[4]; mean,54.93 mg/dL
same,Serum TNF-D,[4]; mean,11.78 pg/mL
same,Serum adiponectin,[4]; mean,13803 ng/mL
same,Serum cholesterol,[4]; mean,81.36 mg/dL
same,Serum free fatty acids,[4]; mean,0.89 mM/L
same,Serum insulin,[4]; mean,0.116 µg/L
same,Serum leptin,[4]; mean,15.43 ng/mL
same,Serum resistin,[4]; mean,0.98 ng/mL
same,Body weight,[4]; mean (SD on next line),21.50 g
same,Differentiation of 3T3-L1 adipocytes,[5],inhibited
